The source of these data is ChEMBL document CHEMBL5528009, “Benzothiozinone derivatives with anti-tubercular Activity-Further side chain investigation” (Eur J Med Chem, 2024).

Data set [1] relates to Mycobacterium tuberculosis. Nature of the data set: Antitubercular activity against Mycobacterium tuberculosis H37Rv (ATCC 25618) incubated for […] by MABA assay. Type of data set: functional. For orientation: Resazurin is reduced to fluorescent resorufin, in cell work by metabolically active cells.
Data set [2] is described as follows: Metabolic stability in NADPH-fortified mouse liver microsomes assessed as CYP450-mediated stability incubated for 120 mins by LC/MS analysis. It is filed as ADME, Microsome. The settings on record: 2 h. A general note: Liver microsomes are a subcellular fraction often used to study metabolism.
Data set [3] in a line: Metabolic stability in NADPH-fortified human liver microsomes assessed as CYP450-mediated stability incubated for 120 mins by LC/MS analysis. Type of data set: ADME, Microsome. The note with it: 2 h.
For data set [4], the target named is T1, Decaprenylphosphoryl-beta-D-ribose oxidase (Mycobacterium tuberculosis (strain ATCC 25618 / H37Rv)) (UniProt P9WJF1).
T1 sequence (whole entry): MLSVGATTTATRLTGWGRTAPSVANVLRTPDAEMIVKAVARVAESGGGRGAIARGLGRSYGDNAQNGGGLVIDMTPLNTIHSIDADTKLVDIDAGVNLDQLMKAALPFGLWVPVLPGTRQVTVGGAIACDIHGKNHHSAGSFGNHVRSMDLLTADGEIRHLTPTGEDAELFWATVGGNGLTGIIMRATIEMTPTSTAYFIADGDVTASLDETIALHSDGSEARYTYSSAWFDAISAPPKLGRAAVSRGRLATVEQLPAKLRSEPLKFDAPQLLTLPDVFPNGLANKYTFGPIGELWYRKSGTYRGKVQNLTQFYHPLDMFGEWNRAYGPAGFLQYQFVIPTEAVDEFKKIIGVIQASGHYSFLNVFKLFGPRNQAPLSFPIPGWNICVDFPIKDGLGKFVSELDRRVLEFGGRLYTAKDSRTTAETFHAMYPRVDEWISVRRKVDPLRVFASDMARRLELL
Nature of the data set: Time-dependent covalent inhibition of recombinant Mycobacterium tuberculosis DprE1 expressed in Escherichia coli by Amplex Red/peroxidase coupled assay.

The nature of data set [5]: Elimination half life in ICR mouse at 25 micromol/kg, po measured after 24 hrs by LC-MS/MS analysis. It is filed as ADME, organism-based. The settings on record: in vivo, dose 25 µmol/kg, read-out: beta t1/2 (converted).
The nature of data set [6]: Oral bioavailability in ICR mouse at 25 micromol/kg measured after 24 hrs by LC-MS/MS analysis. Type of data set: ADME, organism-based. The settings on record: in vivo, po, 24 h, at 25 µmol/kg.
The nature of data set [7]: Protein binding in mouse plasma assessed as unbound fraction incubated for 24 hrs by equilibrium dialysis based LC/MS analysis. It is filed as ADME, cell-free. Background: In equilibrium dialysis free small molecules cross a membrane that holds back macromolecules.
The nature of data set [8]: Volume of distribution at steady state in ICR mouse at 5 micromol/kg, iv measured after 24 hrs by LC-MS/MS analysis. It is filed as ADME, organism-based. The note with it: in vivo, dose 5 µmol/kg, read-out: Vdss.
The nature of data set [9]: Aqueous solubility of the compound in PBS buffer at pH 6.82 incubated for 4 hrs by HPLC analysis. It is filed as physicochemical.
A short description of data set [10]: Drug concentration in ICR mouse plasma at 5 micromol/kg, iv measured after 5 mins by LC-MS/MS analysis. It is filed as ADME, organism-based. The note with it: dose 5 µmol/kg.
Data set [11] is described as follows: AUC (0 to 8 hrs) in ICR mouse at 5 micromol/kg, iv by LC-MS/MS analysis. The note with it: in vivo, iv, dose 5 µmol/kg. Type of data set: ADME, organism-based.
Data set [12] can be described thus: MRT in ICR mouse at 25 micromol/kg, po measured after 24 hrs by LC-MS/MS analysis. The note with it: in vivo, dose 25 µmol/kg. It is filed as ADME, organism-based.
A short description of data set [13]: MRT in ICR mouse at 5 micromol/kg, iv measured after 24 hrs by LC-MS/MS analysis. The settings on record: in vivo, dose 5 µmol/kg. It is filed as ADME, organism-based.
Data set [14] can be described thus: Tmax in ICR mouse at 25 micromol/kg, po measured after 24 hrs by LC-MS/MS analysis. It is filed as ADME, organism-based. The note with it: in vivo, dose 25 µmol/kg.
The nature of data set [15]: Elimination half life in ICR mouse at 5 micromol/kg, iv measured after 24 hrs by LC-MS/MS analysis. Type of data set: ADME, organism-based. The settings on record: in vivo, dose 5 µmol/kg, read-out: beta t1/2 (converted).
Data set [16] in a line: Total plasma clearance in ICR mouse at 5 micromol/kg, iv measured after 24 hrs by LC-MS/MS analysis. It is filed as ADME, organism-based. The settings on record: dose 5 µmol/kg.
Data set [17] in a line: Cmax in ICR mouse at 25 micromol/kg, po measured after 24 hrs by LC-MS/MS analysis. It is filed as ADME, organism-based. The settings on record: in vivo, dose 25 µmol/kg.
A short description of data set [18]: AUC (0 to 24 hrs) in ICR mouse at 25 micromol/kg, po by LC-MS/MS analysis. It is filed as ADME, organism-based. The note with it: in vivo, po, dose 25 µmol/kg.
In a further data set the test system is HepG2. The data set is described as follows: Cytotoxicity against human HepG2 cells at 30 uM incubated for 48 hrs by CCK8 assay. The note with it: hepg2, 48 h. Type of data set: toxicity, cell-based.
The nature of data set [19]: Cytotoxicity against mouse hepatic stellate cells at 30 uM incubated for 48 hrs by CCK8 assay. Type of data set: toxicity, cell-based. The settings on record: hepatic stellate cell.
The test system of data set [20] is Mycobacterium tuberculosis. Nature of the data set: Antitubercular activity against Mycobacterium tuberculosis H37Rv infected in BALB/c mouse assessed as log reduction in colony formation in lung at 50 mg/kg, po administered for 6 weeks. Type of data set: functional.

Structures are written as SMILES. In brackets after ≈: the same amount, converted by molar mass. Activity calls are given as the source filed them. Where only a bound is given, the exact number is not on record here.

The term MIC denotes the smallest concentration in the dilution series that meets the test's criterion for growth inhibition. Broadly, the solubility is the concentration that dissolves in the medium under given conditions. The low end stands for a poorly soluble substance, the high end for a readily soluble substance. As usually defined, the AUC is the area under the concentration-time curve, a measure of exposure. For orientation: MRT means a mean duration of stay, worked out from the concentration-time curve. By Tmax is commonly meant the time from dosing to the highest level. For orientation: clearance means the rate of elimination divided by the concentration. Lower therefore signals a low capacity for elimination. As a reminder, the Cmax is the peak of the concentration-time curve.

`CN(Cc1nnc(-c2ccccc2)o1)c1nc(=O)c2cc(S(C)(=O)=O)cc([N+](=O)[O-])c2s1`: it took 0.03 µM (≈ 0.0142 µg/mL) to inhibit growth in data set [1] (MIC).

Turning to `CN(CC#Cc1cccs1)c1nc(=O)c2cc(C(F)(F)F)cc([N+](=O)[O-])c2s1`, the Stability entry in data set [2] and in data set [3] was “Stable” each time. Also, the MIC in data set [1] came out at 0.014 µM (≈ 0.00596 µg/mL). Further, the TDI entry in data set [4] is “Active”.

In the case of `CN(CC#Cc1cccc(C#N)c1)c1nc(=O)c2cc(C(F)(F)F)cc([N+](=O)[O-])c2s1`, the MIC in data set [1] turned out to be 0.029 µM (≈ 0.0129 µg/mL).

Take `O=c1nc(N2CCN(CC3CCCCC3)CC2)sc2c([N+](=O)[O-])cc(C(F)(F)F)cc12` [MACOZINONE]: the half-life in data set [5] was 1.48 h; in [15], 0.95 h. This molecule returned a F in [6] of 0.65%. In addition, in [7], the Fu was found to be 0.46%. Besides, in data set [8], the Vd came to 5.61 L/kg. Moreover, in [1], the minimum inhibitory concentration (MIC) was < 0.0004 µM. The molecule further came in with a solubility at 4 h in data set [9] of 0.01 µg/mL (≈ 0.0219 µM). In data set [10], this molecule showed a concentration at 5 min of 1390 nM. Further, the AUC was found to be 1.18766 µM·h in [11] and 0.80339 µM·h in [18]. Further, the results for the MRT in data set [12] and in [13] were 2.44 h and 1.42 h, respectively. Further, the Tmax in [14] worked out at 0.38 h. In addition, the clearance in data set [16] was 65.5 mL/min/kg. The Cmax in data set [17] was 472 nM.

In the case of `CN1CCC(O)(C#CCN(C)c2nc(=O)c3cc(C(F)(F)F)cc([N+](=O)[O-])c3s2)CC1`, inhibition of growth in [1] (MIC) required 16.9 µM (≈ 7.72 µg/mL).

Turning to `CN(CC#Cc1ccc(F)cc1)c1nc(=O)c2cc(C(F)(F)F)cc([N+](=O)[O-])c2s1`, in data set [1], the MIC was found to be 0.013 µM (≈ 0.00569 µg/mL).

Molecule `CN(C)Cc1ccc(C#CCN(C)c2nc(=O)c3cc(C(F)(F)F)cc([N+](=O)[O-])c3s2)cc1` returned an MIC in [1] of 0.47 µM (≈ 0.224 µg/mL).

For the molecule `CN(C/C=C\c1ccccc1)c1nc(=O)c2cc(C(F)(F)F)cc([N+](=O)[O-])c2s1`, the MIC in data set [1] is 0.045 µM (≈ 0.019 µg/mL). For the same molecule, in data set [4], the TDI entry was “Active”.

Take `C#CCN(C)c1nc(=O)c2cc(C(F)(F)F)cc([N+](=O)[O-])c2s1`: the MIC in data set [1] stood at 1.4 µM (≈ 0.479 µg/mL).

Turning to `CN(CC#CCN1CCCC1)c1nc(=O)c2cc(C(F)(F)F)cc([N+](=O)[O-])c2s1`, in data set [1], the MIC was determined as 0.378 µM (≈ 0.161 µg/mL).

With `CN(CC#Cc1cscn1)c1nc(=O)c2cc(C(F)(F)F)cc([N+](=O)[O-])c2s1`, the half-life in data set [5] was 4.77 h; in data set [15], 0.84 h. In addition, the F in [6] stood at 37.13%. For the same molecule, the Fu in data set [7] was found to be 0.65%. Besides, in data set [8], the Vd was determined as 0.59 L/kg. Also, the Stability entry in [2] and in data set [3] was “Stable” each time. For the same molecule, the MIC in data set [1] came out at 0.028 µM (≈ 0.0119 µg/mL). In [9], this molecule came in with a solubility at 4 h of 12.8 µg/mL (≈ 30 µM). Also, the concentration at 5 min in [10] amounted to 10300 nM. Also, the Activity entry was “Non-Toxic” in the data set on HepG2, “Non-Toxic” in [19] and ~2 log10CFU in [20]. Further, the AUC in data set [11] came to 4.66345 µM·h; in data set [18], 18.99661 µM·h. The MRT in data set [12] is 7.17 h; in [13], 1.05 h. For the same molecule, the Tmax in data set [14] worked out at 1 h. Also, the clearance in data set [16] is 8.5 mL/min/kg. The molecule also displayed a Cmax in [17] of 2670 nM.

The molecule `CN(CC#Cc1cnsc1)c1nc(=O)c2cc(C(F)(F)F)cc([N+](=O)[O-])c2s1` had an MIC in data set [1] of 0.03 µM (≈ 0.0128 µg/mL).

In data set [1], `CN(CC#CCN1CCCCC1)c1nc(=O)c2cc(C(F)(F)F)cc([N+](=O)[O-])c2s1` showed an MIC of 0.127 µM (≈ 0.0559 µg/mL).

As for `CN(C/C=C\C1CCCC1)c1nc(=O)c2cc(C(F)(F)F)cc([N+](=O)[O-])c2s1`, it took 0.01 µM (≈ 0.00413 µg/mL) to inhibit growth in [1] (MIC).

The molecule `CN(C/C=C/C1CC1)c1nc(=O)c2cc(C(F)(F)F)cc([N+](=O)[O-])c2s1` displayed an MIC in [1] of 0.023 µM (≈ 0.00886 µg/mL).

In the case of `CN(C)CCc1ccc(C#CCN(C)c2nc(=O)c3cc(C(F)(F)F)cc([N+](=O)[O-])c3s2)cc1`, the lowest concentration to inhibit growth in [1] (MIC) was 1.01 µM (≈ 0.495 µg/mL).

In the case of `CN(CC#Cc1ccc(F)c(F)c1)c1nc(=O)c2cc(C(F)(F)F)cc([N+](=O)[O-])c2s1`, inhibition of growth in [1] (MIC) required 0.013 µM (≈ 0.00592 µg/mL).

With `CN(C/C=C\C1CCCCC1)c1nc(=O)c2cc(C(F)(F)F)cc([N+](=O)[O-])c2s1`, the lowest concentration to inhibit growth in [1] (MIC) was 0.009 µM (≈ 0.00385 µg/mL).

`CN(CC#CCN1CCOCC1)c1nc(=O)c2cc(C(F)(F)F)cc([N+](=O)[O-])c2s1` yielded an MIC in [1] of 0.106 µM (≈ 0.0469 µg/mL).

Turning to `CN(CC#CCN1CCS(=O)(=O)CC1)c1nc(=O)c2cc(C(F)(F)F)cc([N+](=O)[O-])c2s1`, the MIC in data set [1] stood at 0.867 µM (≈ 0.425 µg/mL).

In data set [1], `CN(CC#Cc1ccc(F)cc1F)c1nc(=O)c2cc(C(F)(F)F)cc([N+](=O)[O-])c2s1` showed an MIC of 0.007 µM (≈ 0.00319 µg/mL).
